Structures are written as SMILES.

By melting point is commonly meant the temperature, or range, at which the solid turns liquid. Take `CC1COc2c(N3CCN(C#N)CC3NC(=N)N)c(F)cc3c(=O)c(C(=O)O)cn1c23` (configuration not stated): the melting point lay within 298 to 300 °C.

Regarding `CCOC(=O)c1ccc(-c2ccc(-c3ccccc3)c(-c3ccc4c(c3)C(C)(C)CCC4(C)C)c2)nc1`, the melting point lay in the range of 105 to 107 °C.

Molecule `Cc1cc(C)c2c(c1C)OC(C)(CBr)C2` (configuration not stated) registered a melting point of 39 to 40 °C.

As for `COc1cccc(CC(=O)O)c1OCCCc1ccc(OC(C)C)cc1Oc1ncc(Cl)cc1Cl`, the melting point lay in the range of 92 to 93 °C.

Regarding `CN(Cc1ccc(CCn2cnc3cc(-c4ccc(Cl)cc4)sc3c2=O)cc1)S(C)(=O)=O`, the melting point was 230 to 232 °C.

Molecule `C=CC(C)=CC=CC(C)=CC(=O)OCC` showed a melting point of 52 to 53 °C.

`CCN1C(=O)CCCc2ccc(Nc3ncc(Br)c(Nc4c(F)cccc4C(=O)NC)n3)cc21`: the melting point was in the range of 231 to 232 °C.

`Cc1cc(C2=C(C=O)C(C)(C)CC(C)(C)C2)ccc1F` registered a melting point of 50.5 to 51.5 °C.

In turn, `COc1ccc2ncc(Cl)c(OC[C@@H]3CC[C@@H](NC(=O)OC(C)(C)C)CO3)c2c1` came in with a melting point of 173 °C.

`Cc1cc(C)c(C2CC(=O)C=C(O)C2)c(C)c1` (configuration not stated) yielded a melting point of 165 °C.

The molecule `CCCc1cc(CCCOc2c(C)cc(-c3nc(C)no3)cc2C)on1` showed a melting point of 35 to 37 °C.

In the case of `CSc1nc(Cl)c(-c2c(F)cccc2Cl)c(NC(C)C)n1`, the melting point fell in the range of 94 to 98 °C.

`O=Cc1c[nH]c2c1ccc1c3cc(-c4ccc(F)cc4)ccc3[nH]c12` yielded a melting point of over 250 °C.

Molecule `O=C(Nc1ccc(Cl)cc1)/C(Br)=C/Br` had a melting point of 99.5 to 100 °C.

Molecule `CC(=O)OC1CC(=O)C2(C)CCC3C(CCC4CC(=O)CC(C)(O)C43C)C12` (configuration not stated) had a melting point of 170 °C.

The molecule `c1cncc(-c2cc(Oc3ccc4cccnc4c3)ncn2)c1` returned a melting point of 155 to 158 °C.

The molecule `CCc1ccc2sc3cc(C#N)ccc3c(=O)c2c1` displayed a melting point of 198 to 215 °C.

The molecule `Cc1ccc2ccc(NCc3c(C)c(CNc4ccc5ccc(C)nc5n4)c(C)c(CNc4ccc5ccc(C)nc5n4)c3C)nc2n1` returned a melting point of 207 to 208 °C.

Turning to `COC(=O)c1ccc(-c2nc(-c3c(F)c(F)c(F)c(F)c3F)cs2)cc1`, the melting point fell in the range of 141 to 142 °C.

`COc1cc(C(=O)O)c(OC)cc1C` gave a melting point of 120 °C.

`C/C(=C\c1ccc(C(=O)O)cc1)c1ccc2c(c1)CC(C)(C)CC(C)(C)C2` gave a melting point of 232 to 235 °C.

In turn, `O=C(NCCC1CCN(c2noc3cc(Cl)ccc23)CC1)c1nsc2ccccc12` yielded a melting point of 132 to 134 °C.

In turn, `O=C(NC1CCCCC1)c1c(O)c2ccccc2[nH]c1=O` gave a melting point of 221 °C.

Turning to `CCCCc1nc(Cl)c(CC(=O)OCC)c(Cc2ccc(-c3ccccc3-c3nnn[nH]3)cc2)n1`, the melting point was 160 °C.

`COC(=O)Nc1nc(-c2ccccc2)c(-c2nc3ccccc3c(=O)n2-c2ccccc2Cl)s1` registered a melting point of over 275 °C.

On to `Cc1cc(Cl)c(C(N)=O)c(Cl)c1`, for which the melting point was 101 to 107 °C.

In turn, `CC(=O)OCCc1cccc2c(-c3ccccc3)c([N+](=O)[O-])oc12` showed a melting point of 95 to 98 °C.

Molecule `O=C(CBr)CCc1ccccc1` returned a melting point of 39 to 40 °C.

For `CN(C(=O)OC(C)(C)C)[C@H](Cc1ccc2ccccc2c1)C(=O)N1CCN(S(C)(=O)=O)C[C@H]1Cc1ccccc1`, the melting point was in the range of 76 to 80 °C.

`Cc1cc(CCNc2ncnc3c(F)ccc(F)c23)ccc1Oc1cc(C(F)(F)F)ccn1` yielded a melting point of 108 to 110 °C.

For the molecule `COc1cc(O)c(C(=O)C=Cc2ccc3nc[nH]c3c2)c(OC)c1`, the melting point was in the range of 147 to 149 °C.

Molecule `CCOC1=CC2=CCc3cc(C#N)ccc3[C@]2(Cc2ccccc2)CC1` registered a melting point of 164 to 165 °C.

As for `Cc1ccc(C(O)(c2ccc(C)cc2)[C@H](C)n2ccnc2)cc1`, the melting point lay in the range of 194 to 196 °C.

Molecule `c1ccc2c(c1)c1ccccc1n2-c1ccc(-c2ccc(-n3c4ccccc4c4ccccc43)cc2)cc1` came in with a melting point of 280 to 281 °C.

With `CC(C(O)c1ccccc1)n1nnc2cc3c(cc2c1=O)OC1CCCN1C3=O` (configuration not stated), the melting point is 235 to 238 °C.

`CC(C)(C)C1=C(c2cc(O)c3nc(-c4ccccc4)oc3c2)OCC1(C)C` returned a melting point of 160 to 161 °C.

The molecule `Cc1sc(-c2ccccc2)nc1COc1ccc(CCl)cc1` showed a melting point of 100 to 101 °C.

The molecule `CN(CCF)c1nc2cc(NC(=O)c3c(C(=O)N4CCOCC4)cnn3C)ccn2n1` had a melting point of 144 to 145 °C.

Consider `Cc1cc(CNC(=O)c2cc(-c3ccc(C(C)(C)C)cc3)nn2CC(=O)c2ccccc2)ccc1OC(C)(C)C(=O)O`, for which the melting point was found to be 116 °C.

Regarding `CC(C)(C)c1cccc2c1OC(CNC(=O)OCc1ccccc1)C2` (configuration not stated), the melting point lay within 73 to 76 °C.

`CCC(CC)c1ccc(Cl)c2nc3n(c12)CCCCN3c1c(C)cc(C)cc1OC`: the melting point was 196 to 198 °C.

In turn, `O=c1c2cc(F)c(N3CCCC3)nc2n(Cc2ccccc2)c(=O)n1OCc1ccccc1` had a melting point of 171 to 172 °C.

As for `O=C1CN(c2cncc(Cl)n2)CCN1`, the melting point lay in the range of 192 to 193 °C.

Take `COc1ccc(N2CN(C)CNC2=S)cc1`: the melting point was determined as 194 °C.

`O=Cc1c(F)cccc1Br`: the melting point lay in the range of 35 to 37 °C.

`O=C(O)c1cnn2c(C(F)F)cc(-c3ccc(C(F)(F)F)cc3)nc12` returned a melting point of 261 °C.

Turning to `Cc1noc(C)c1S(=O)(=O)n1c(=O)oc2ccccc21`, the melting point was 133 to 135 °C.

`CN(C)C=CC=C(C#N)c1cccnc1` showed a melting point of 117 to 120 °C.

In turn, `CN(C)c1ccc(/C=C\c2ccc3c(=O)[nH]ncc3c2)cc1` displayed a melting point of 312 to 318 °C.

For the molecule `Nc1ccc(/C=C/c2ccccc2)nc1`, the melting point was in the range of 159 to 160 °C.

For `Nc1ccc(-c2coc3cc(O)c(O)cc3c2=O)cc1`, the melting point was 305 to 306 °C.

For `CC(Cl)COC(C)c1ccc(O)cc1` (single isomer, unassigned; (+)), the melting point is 50 to 51 °C.

On to `O=C1NC(=O)C(=Cc2ccc(OCCNc3nc4ccccc4o3)cc2)S1`, for which the melting point fell in the range of 242 to 245 °C.

`O=C1N[C@H](Cc2ccccc2C(F)(F)F)[C@H](c2ccc(F)cc2)O1` (racemic) had a melting point of 138 to 140 °C.

The molecule `CCCCCCCCCCCCOC(C)c1ccc(-c2ccc(C(=O)O)cc2)cc1` (single isomer, unassigned; (+)) gave a melting point of 70.5 °C.

In the case of `C#CCCOc1cc(/C=C/C(=O)Nc2ccccc2C(=O)O)ccc1OC`, the melting point is 197 to 198 °C.

Molecule `COc1cccc(-c2nc3n(n2)Cc2ccc(OC)cc2-3)c1` showed a melting point of 136 to 138 °C.

For `O=C1c2ccccc2C2(c3ccc(Cl)cc3)NCCCCN12` (configuration not stated), the melting point lay within 134 to 135 °C.

On to `CCOCc1nc2c(N)nc3ccccc3c2n1Cc1ccccc1`, for which the melting point fell in the range of 204 to 205 °C.

`NCCCNc1ncc2ncnc(Nc3ccc(F)c(Cl)c3)c2n1` showed a melting point of 177 to 179 °C.

In turn, `CCCN(CCC)C1Cc2cc3c(cc2C1)C(=O)N(c1ccc(C(N)=O)cc1)C3=O` gave a melting point of 275 to 276 °C.

The molecule `COc1ccc(CN(C)CCc2ccc(NC(=O)c3cccc4c(=O)c5cccc(F)c5[nH]c34)c(C)c2)cc1OC` had a melting point of 125 °C.

Turning to `O=c1c(Cl)c(Cl)cnn1C1CCCCO1` (configuration not stated), the melting point was in the range of 74 to 76 °C.

The molecule `CCn1nc(OCCCc2ccc(OCCOC)cc2OCc2ccc(C(F)(F)F)cc2)cc1CCC(=O)O` showed a melting point of 112 to 113 °C.

In turn, `COc1ccc(-c2nc(C)nn2-c2ccccc2S(N)(=O)=O)cc1OC` came in with a melting point of 176 to 178 °C.

Regarding `COc1ccc(C(=O)c2cc3ccncc3[nH]2)cc1`, the melting point fell in the range of 225 to 228 °C.

In turn, `COC(=O)C1=C(C)NC(N)=C(C#N)C1c1ccc(C(F)(F)F)cc1` (configuration not stated) gave a melting point of 210 to 214 °C.

In turn, `Cc1cc(C)cc(N(CCCC(N)=O)Cc2ccc3nc(NCCCN4CCOCC4)n(Cc4cccc5c4ncn5C)c3c2)c1` returned a melting point of 206 °C.

The molecule `CS(=O)(=O)c1ccc(-n2nc(C(=O)O)cc2-c2ccc(-c3ccco3)cc2)cc1F` registered a melting point of 172 to 173 °C.

For the molecule `COC(=O)c1c(C(=O)OC)c2sc3ccccc3n2c1-c1ccc(Cl)cc1`, the melting point was 172 to 173 °C.

With `CC(=O)N1CCN(C)C1C(c1ccccc1)c1ccccc1` (configuration not stated), the melting point fell in the range of 164 to 165 °C.

Molecule `Cc1c(C)c([N+](=O)[O-])c(C)c2c1OC(C)(C)C2c1ccccc1` (configuration not stated) displayed a melting point of 155 to 156 °C.

In the case of `N#Cc1ncnc2[nH]ccc12`, the melting point is 237 to 238 °C.

Regarding `O=[N+]([O-])c1cccc([N+](=O)[O-])c1NCCO`, the melting point was 77 °C.

For `CCc1ccc(/C(Cl)=C/c2ccc(Br)cc2)cc1`, the melting point amounted to 75 °C.

`COc1ccc(Cn2c(C(=O)O)c(-c3ccc4c(c3)OCO4)c3ccccc32)c(OCC(=O)O)c1`: the melting point was in the range of 195 to 196 °C.

For the molecule `Nc1ncc(CCN2CCC(C(=O)c3ccc(F)cc3)CC2)c(O)n1`, the melting point came out at 256 °C.

As for `COC(=O)C(=Cc1cc(OC)cc(OC)c1)c1ccc(Oc2ccc(C=O)cc2)cc1`, the melting point lay in the range of 108 to 110 °C.

As for `O=c1nc(-c2ccccc2)c2ccsc2n1CC1CC1`, the melting point lay within 191 to 192 °C.

Regarding `CNC(=O)c1ccccc1Nc1nc(Nc2ccc3c(c2)CCN(C(=O)C(F)(F)F)CC3)ncc1Cl`, the melting point lay within 192 to 194 °C.

As to `CC(=O)N1c2ccccc2CC1C(N)=NO` (configuration not stated), the melting point fell in the range of 204 to 205 °C.

`O=[N+]([O-])c1ccc(Oc2ccc(C34CC5CC(C3)CC(c3ccc(Oc6ccc([N+](=O)[O-])c(O)c6)cc3)(C5)C4)cc2)cc1O` gave a melting point of 118 to 122 °C.

With `CN1CCN(S(=O)(=O)c2ccc(Br)s2)CC1`, the melting point is 122 °C.

In turn, `CC1CC(=O)NN=C1c1ccc(-n2ccc(CN(C)C)c2)cc1` (configuration not stated) registered a melting point of 167 to 168 °C.

As for `Oc1ccccc1OCCOCCOc1ccccc1O`, the melting point worked out at 85 °C.

`C=CCc1cc(N2CCN(c3ccncc3)CC2)ccc1OCCCC(=O)OCC` registered a melting point of 53 to 55 °C.

For `COC(=O)CSC(c1ccccc1OC)c1ccccc1OC`, the melting point is 65 to 67 °C.

(Values after a melting point compilation (Tetko et al.; mined from patent text by program, amines drawn as free bases though some values may be those of a salt).)
